Where a name gives a salt, the structure may show the parent alone.
Assays:
CDK2/cyclin A = CDK2/cyclin A (Homo sapiens, UniProt P24941); assay: Assay for Inhibition of CDK2/Cyclin A; type: biochemical; details: 20 ng CDK2/cyclin A, retinoblastoma protein substrate, [32P]ATP, 25° C. 15 minutes
Procedure: (§1) To determine the inhibitory potency and selectivity of compounds of the present invention against CDK4 and related kinases, compounds were evaluated in standard assays routinely used to measure inhibition of cyclin-dependent kinase enzymes and other protein kinases (see for example D. W. Fry et al., J. Biol. Chem. 2001, 276, 16617-16623). The assays were carried out as described below.
Assay for Inhibition of CDK2/Cyclin A
CDK2 enzyme assays for IC50 determinations and kinetic evaluation are performed as follows. 96-well filter plates (Millipore MADVN6550, Bedford, Mass.) are used. The final assay volume is 0.1 mL containing buffer A (20 mM TRIS (tris[hydroxymethyl]aminomethane) (pH 7.4), 50 mM NaCl, 1 mM dithiothreitol, 10 mM MgCl2), […] ATP containing 0.25 μCi [^32P]ATP, 20 ng CDK2/cyclin A, 1 μg retinoblastoma protein, and the test compound at appropriate dilutions in buffer A (Buffer A alone without added test compound was employed as a control for no inhibition. Buffer A containing excess ethylenediamine tetra acetic acid (EDTA) was used to determine the level of background ^32P in the absence of enzyme activity). All components except the ATP are added to the wells, and the plate is placed on a plate mixer for 2 minutes. The reaction is initiated by addition of [^32P]ATP, and the plate is incubated at 25° C. for 15 minutes. The reaction is terminated by addition of 0.1 mL 20% trichloroacetic acid (TCA). The plate is kept at 4° C. for at least 1 hour to allow the substrate to precipitate. The wells are then washed five times with 0.2 mL 10% TCA, and ^32P incorporation is determined with a beta plate counter (Wallac Inc., Gaithersburg, Md.). The IC50 of the test compound was determined using the median effect method (Chou, T-C and Talalay, P. Applications of the median effect principle for the assessment of low-dose risk of carcinogens and for the quantitation of synergism and antagonism of chemotherapeutic agents. In: New Avenues in Developmental Cancer Chemotherapy (Eds. Harrap, K. T. and Connors, T. A.), pp. 37-64. Academic Press, New York, 1987).

CDK4/Cyclin D = CDK4/Cyclin D (Homo sapiens, UniProt P11802); assay: Assay for Inhibition of CDK4/Cyclin D; type: biochemical; details: 20 ng CDK4, retinoblastoma protein substrate, 25 μM ATP, 25° C. 15 minutes
Procedure: as §1
Assay for Inhibition of CDK4/Cyclin D
The CDK4 enzyme assay for IC50 determination and kinetic evaluation is performed as follows. 96-well filter plates (Millipore MADVN6550, Bedford, Mass.) are used. The total volume is 0.1 mL containing buffer A (20 mM TRIS (tris[hydroxymethyl]aminomethane)) (pH 7.4), 50 mM NaCl, 1 mM dithiothreitol, 10 mM MgCl2), 25 μM ATP containing 0.25 μCi [^32P]ATP, 20 ng CDK4, 1 μg retinoblastoma protein and the test compound at appropriate dilutions in buffer A. Buffer A alone without added test compound was employed as a control for no inhibition. Buffer A containing excess EDTA was used to determine the level of background ^32P in the absence of enzyme activity. All components except the ATP are added to the wells, and the plate is placed on a plate mixer for 2 minutes. The reaction is started by adding [^32P]ATP, and the plate is incubated at 25° C. for 15 minutes. The reaction is terminated by addition of 0.1 mL 20% trichloroacetic acid (TCA). The plate is kept at 4° C. for at least 1 hour to allow the substrate to precipitate. The wells are then washed five times with 0.2 mL 10% TCA, and ^32P incorporation is determined with a beta plate counter (Wallac Inc., Gaithersburg, Md.). The IC50 of the test compound was determined using the median effect method (Chou, T-C and Talalay, P. Applications of the median effect principle for the assessment of low-dose risk of carcinogens and for the quantitation of synergism and antagonism of chemotherapeutic agents. In: New Avenues in Developmental Cancer Chemotherapy (Eds. Harrap, K. T. and Connors, T. A.), pp. 37-64. Academic Press, New York, 1987).

neointima formation = details: in rats; Brooks E. E. et al., J. Biol. Chem. 1997; cited from earlier work

Sequence of CDK4/Cyclin D (P11802 whole entry, species assumed): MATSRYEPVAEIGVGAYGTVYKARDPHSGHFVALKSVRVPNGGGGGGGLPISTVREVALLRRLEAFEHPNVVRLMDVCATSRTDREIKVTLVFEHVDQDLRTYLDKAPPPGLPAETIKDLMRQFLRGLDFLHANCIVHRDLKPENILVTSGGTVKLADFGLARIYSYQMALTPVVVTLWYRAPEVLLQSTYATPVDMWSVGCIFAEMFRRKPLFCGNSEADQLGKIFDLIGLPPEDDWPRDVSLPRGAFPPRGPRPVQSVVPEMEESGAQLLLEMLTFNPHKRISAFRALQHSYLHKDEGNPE
Sequence of CDK4/Cyclin D (P24385 whole entry partner, species assumed): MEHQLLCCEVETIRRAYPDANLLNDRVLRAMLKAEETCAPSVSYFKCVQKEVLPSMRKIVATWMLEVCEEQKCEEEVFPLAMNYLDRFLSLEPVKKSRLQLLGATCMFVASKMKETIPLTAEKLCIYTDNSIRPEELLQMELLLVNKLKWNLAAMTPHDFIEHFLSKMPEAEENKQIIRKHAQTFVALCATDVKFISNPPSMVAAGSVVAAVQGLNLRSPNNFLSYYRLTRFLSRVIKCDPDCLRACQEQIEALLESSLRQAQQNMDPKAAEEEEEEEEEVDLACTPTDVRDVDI

Molecule `CC(=O)c1c(C)c2cnc(Nc3ccc(N4CCOCC4)nc3)nc2n(C2CCCC2)c1=O` [Example 5, 6-Acetyl-8-cyclopentyl-5-methyl-2-(6-morpholin-4-yl-pyridin-3-ylamino)-8H-pyrido[2,3-d]pyrimidin-7-one] has a melting point of 224 to 226 °C.

`COc1ccc(Nc2ncc3ccc(=O)n(C4CCCC4)c3n2)cn1` [Example 2, 8-Cyclopentyl-2-(6-methoxy-pyridin-3-ylamino)-8H-pyrido[2,3-d]pyrimidin-7-one] showed an IC50 (CDK2/cyclin A) of 0.029 µM, an IC50 (CDK4/Cyclin D) of 0.082 µM and a melting point of 181 to 182 °C.

`CC(C)n1c(=O)ccc2cnc(Nc3cccnc3)nc21` [Example 1, 8-Isopropyl-2-(pyridin-3-ylamino)-8H-pyrido[2,3-d]pyrimidin-7-one] gave an IC50 (CDK2/cyclin A) of 0.235 µM, an IC50 (CDK4/Cyclin D) of 0.535 µM and a melting point of 156 to 158 °C.

Molecule `CC(=O)c1c(C)c2cnc(Nc3ccc(N4CCNCC4)nc3)nc2n(C2CCCC2)c1=O` [Example 7, 6-Acetyl-8-cyclopentyl-5-methyl-2-(6-piperazin-1-yl-pyridin-3-ylamino)-8H-pyrido[2,3-d]pyrimidin-7-one] has an IC50 (CDK2/cyclin A) of 0.26 µM, an IC50 (CDK4/Cyclin D) of 0.003 µM and a melting point of 125 °C.

For `O=c1c(Br)cc2cnc(Nc3ccc(N4CCNCC4)nc3)nc2n1C1CCCC1` [Example 3, 6-Bromo-8-cyclopentyl-2-(6-piperazin-1-yl-pyridin-3-ylamino)-8H-pyrido[2,3-d]pyrimidin-7-one hydrochloride salt], the IC50 (CDK2/cyclin A) was 0.19 µM and the IC50 (CDK4/Cyclin D) was 0.012 µM.

With `Cc1c(Br)c(=O)n(C2CCCC2)c2nc(Nc3ccc(N4CCNCC4)nc3)ncc12` [Example 6, 6-Bromo-8-cyclopentyl-5-methyl-2-(6-piperazin-1-yl-pyridin-3-ylamino)-8H-pyrido[2,3-d]pyrimidin-7-one] the IC50 (CDK2/cyclin A) was 3.2 µM, the IC50 (CDK4/Cyclin D) was 0.022 µM and the melting point was 290 °C.

For `COc1ccc(CNc2nc(N(CCO)CCO)nc3c2ncn3C(C)C)cc1` [CVT-313], the “inhibition of neointima formation” value (neointima formation) is given as “greater than 80%”.

With `Cc1c(Br)c(=O)n(C2CCCC2)c2nc(Nc3ccc(N4CCOCC4)nc3)ncc12` [Example 4, 6-Bromo-8-cyclopentyl-5-methyl-2-(6-morpholin-4-yl-pyridin-3-ylamino)-8H-pyrido[2,3-d]pyrimidin-7-one] the IC50 (CDK2/cyclin A) was 1.02 µM, the IC50 (CDK4/Cyclin D) was 0.099 µM and the melting point was 254 to 256 °C.

Source: patent publication US20050182078A1, “2-(Pyridin-3-ylamino)-pyrido[2,3-D]pyrimidin-7-ones” (WARNER-LAMBERT COMPANY, LLC, priority 2004, published 2005)
